BindingDB's records for doi:10.7270/Q2T43RJV (Nmmlsc, 2010)

Each compound was assayed against Guanine nucleotide-binding protein G(o) subunit alpha (Homo sapiens, UniProt P09471) (assay: modulators of RGS4 binding to Galphao – biochemical, multiplexed bead assay, additional SAR round, SAR follow-up (AID 2829)).
Guanine nucleotide-binding protein G(o) subunit alpha, sequence (P09471 whole entry): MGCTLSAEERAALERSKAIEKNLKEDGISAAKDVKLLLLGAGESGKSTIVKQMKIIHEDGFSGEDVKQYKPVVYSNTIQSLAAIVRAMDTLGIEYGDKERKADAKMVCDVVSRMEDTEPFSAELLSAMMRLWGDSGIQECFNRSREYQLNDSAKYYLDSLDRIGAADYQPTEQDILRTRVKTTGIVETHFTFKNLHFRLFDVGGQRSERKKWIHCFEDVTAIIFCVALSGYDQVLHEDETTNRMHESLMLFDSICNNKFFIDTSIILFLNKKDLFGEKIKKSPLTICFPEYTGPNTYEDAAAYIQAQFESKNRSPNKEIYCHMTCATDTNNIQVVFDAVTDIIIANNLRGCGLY

EC50, > 30 µM:
O=C(c1sc2cc([N+](=O)[O-])ccc2c1Cl)N1CCNCC1
O=C(NCCCN1CCOCC1)c1sc2cc([N+](=O)[O-])ccc2c1Cl [3-chloranyl-N-(3-morpholin-4-ylpropyl)-6-nitro-1-benzothiophene-2-carboxamide]
O=C(NCCCn1ccnc1)c1sc2cc([N+](=O)[O-])ccc2c1Cl [3-chloro-N-[3-(1-imidazolyl)propyl]-6-nitro-1-benzothiophene-2-carboxamide]
NC(=O)c1sc2cc([N+](=O)[O-])ccc2c1Cl [KSC-1-100]
Cc1ccc2c(Cl)c(C(=O)NCCCN3CCOCC3)sc2c1 [KUC103874N]
